# Data: patent US20110152091A1, “Herbicidal Compositions Comprising Flufenacet” (BAYER CROPSCIENCE AG, priority 2009, published 2011)
# Legend:
# Type in all cases: in vivo
# [1] = test system: Hordeum vulgare, summer barley (HORVS); assay: Greenhouse trial: PO application, crop plant (test methods 2 and 5); details: g of AS/ha: A 240, B 120, C 140, mixture 240 + 120 + 140
# Method: (§1) In the standard design of the test, seeds of various broad-leaved weed and weed grass biotypes (origins) were sown in a 8-13 cm diameter pot filled with natural soil of a standard field soil (loamy silt; non-sterile) and covered with a covering soil layer of about 1 cm. The pots were then cultivated in a greenhouse (12-16 h of light, temperature day 20-22° C., night 15-18° C.) until the time of application. The pots were treated on a laboratory track sprayer with spray liquors comprising the compositions according to the invention, mixtures of the prior art or components used individually. Application of the active compounds or active compound combinations formulated as WG, WP, EC or otherwise was carried out at the appropriate growth stages of the plants. The application rate for the spray application was 100-600 l of water/ha. After the treatment, the plants were returned to the greenhouses.
# (§2) About 3 weeks after the application, the soil action or/and foliar action was assessed visually according to a scale of 0-100% in comparison to an untreated comparative group: 0%=no noticeable effect compared to the untreated comparative group; 100%=full effect compared to the untreated comparative group.
# (notes: the term “seeds” also includes vegetative propagation forms such as, for example, rhizome pieces; abbreviations used: h light=hours of illumination, g of AS/ha=gram of active substance per hectare, l/ha=liter per hectare, S=sensitive, R=resistant) • 1. Pre-emergence action against weeds: seeds of various broad-leaved weed and weed grass biotypes (origins) were sown in a 8-13 cm diameter pot filled with natural soil of a standard field soil (loamy silt; non-sterile) and covered with a covering soil layer of about 1 cm. The pots were then cultivated in a greenhouse (12-16 h of light, temperature day 20-22° C., night 15-18° C.) until the time of application. […]
# Avena fatua (AVEFA) [2] = assay: Greenhouse trial: different soil pH values on PE application (test method 11); details: for activity AVEFA pH 7.4 (visual, scale 0-100%): soil pH 7.4, g of AS/ha: A 90, B 90, C 140, mixture 90 + 90 + 140; for activity AVEFA pH 8.4 (visual, scale 0-100%): soil pH 8.4, g of AS/ha: A 90, B 90, C 140, mixture 90 + 90 + 140
# Method: as §1, §2
# (§3) (notes: the term “seeds” also includes vegetative propagation forms such as, for example, rhizome pieces; abbreviations used: h light=hours of illumination, g of AS/ha=gram of active substance per hectare, l/ha=liter per hectare, S=sensitive, R=resistant) • 1. Pre-emergence action against weeds: seeds of various broad-leaved weed and weed grass biotypes (origins) were sown in a 8-13 cm diameter pot filled with natural soil of a standard field soil (loamy silt; non-sterile) and covered with a covering soil layer of about 1 cm. The pots were then cultivated in a greenhouse (12-16 h of light, temperature day 20-22° C., night 15-18° C.) until the time of application. The pots were treated at the BBCH stage 00-10 of the seeds/plants on a laboratory track sprayer with spray liquors comprising the compositions according to the invention, mixtures or components used individually, as WG, WP, EC or other formulations. The application rate for the spray application was 100-600 l of water/ha. After the treatment, the plants were returned to the greenhouses and, when required, treated with fertilizer and watered. • 2. Post-emergence action against weeds: seeds of various broad-leaved weed and weed grass biotypes (origins) were sown in a 8-13 cm diameter pot filled with natural soil of a standard field soil (loamy silt; non-sterile) and covered with a covering soil layer of about 1 cm. The pots were then cultivated in a greenhouse (12-16 h of light, temperature day 20-22° C., night 15-18° C.) until the time of application. The pots were treated at various BBCH stages between 11-25 of the seeds/plants, i.e. generally between two to three weeks after the start of the cultivation, on a laboratory track sprayer with spray liquors comprising the compositions according to the invention, mixtures or components used individually, as WG, WP, EC or other formulations. The application rate for the spray application was 100-600 l of water/ha. After the treatment, the plants were returned to the greenhouses and, when required, treated with fertilizer and watered. • 3. Pre-emergence action against weeds with and without incorporation of active compound: seeds of various broad-leaved weed and weed grass biotypes (origins) were sown in a 8-13 cm diameter pot filled with natural soil of a standard field soil (loamy silt; non-sterile). […]
# Stellaria media (STEME) [3] = assay: Greenhouse trial: PE soil application vs incorporation into the soil (test methods 1, 3 and 4); details: g of AS/ha: A 75, B 60, C 70, mixture 75 + 60 + 70
# Method: as §1, §2, §3
# Poa annua (POAAN) = assay: as above; details: g of AS/ha: A 75, B 60, C 70, mixture 75 + 60 + 70
# Method: as §1, §2, §3
# Stellaria media (STEME) [4] = assay: Greenhouse trial: different soil types (test method 7); details: g of AS/ha: A 90, B 90, C 140, mixture 90 + 90 + 140
# Method: as §1, §2, §3
# [5] = test system: Matricaria chamomilla (MATCH); assay: as above; details: g of AS/ha: A 90, B 90, C 140, mixture 90 + 90 + 140
# Method: as §1, §2, §3
# [6] = test system: Hordeum vulgare, summer barley (HORVS); assay: Greenhouse trial: different soil types, crop plant (test method 7); details: g of AS/ha: A 90, B 90, C 140, mixture 90 + 90 + 140
# Method: as §1, §2, §3
# Lolium perenne (LOLPE) = assay: Greenhouse trial: pre-sowing method vs PE application (test method 6); details: g of AS/ha: A 90, B 90, C 140, mixture 90 + 90 + 140
# Method: as §1, §2, §3
# Avena fatua (AVEFA) [7] = assay: as above; details: g of AS/ha: A 90, B 90, C 140, mixture 90 + 90 + 140
# Method: as §1, §2, §3
# [8] = test system: Hordeum vulgare, summer barley (HORVS); assay: Greenhouse trial: different soil pH values on PE application, crop plant (test method 11); details: for activity HORVS pH 7.4 (visual, scale 0-100%): soil pH 7.4, g of AS/ha: A 90, B 90, C 140, mixture 90 + 90 + 140; for activity HORVS pH 8.4 (visual, scale 0-100%): soil pH 8.4, g of AS/ha: A 90, B 90, C 140, mixture 90 + 90 + 140
# Method: as §1, §2, §3
# [9] = test system: Triticum aestivum, winter wheat (TRZAW); assay: Greenhouse trial: PE soil application vs incorporation into the soil, crop plant (test methods 1, 3 and 4); details: g of AS/ha: A 75, B 60, C 70, mixture 75 + 60 + 70
# Method: as §1, §2, §3
# [10] = test system: Hordeum vulgare, summer barley (HORVS); assay: Greenhouse trial: different sowing depths on PE application, crop plant (test method 9); details: g of AS/ha: A 90, B 90, C 140, mixture 90 + 90 + 140; for activity HORVS 5 mm (visual, scale 0-100%): Sowing depth 5 mm; for activity HORVS 20 mm (visual, scale 0-100%): Sowing depth 20 mm
# Method: as §1, §2, §3
# [11] = test system: Triticum aestivum, winter wheat (TRZAW); assay: Greenhouse trial: pre-sowing method vs PE application, crop plant (test method 6); details: g of AS/ha: A 90, B 90, C 140, mixture 90 + 90 + 140
# Method: as §1, §2, §3
# [12] = test system: Apera Spica-venti (APESV); assay: Greenhouse trial: PO application (test methods 2 and 5); details: g of AS/ha: A 240, B 120, C 140, mixture 240 + 120 + 140
# Method: as §1
# as §2, with “group. […]” for “group.”
# [13] = test system: Matricaria chamomilla (MATCH); assay: Greenhouse trial: different sowing depths on PE application (test method 9); details: g of AS/ha: A 90, B 90, C 140, mixture 90 + 90 + 140
# Method: as §1
# as §2, with “group. […]” for “group.”
# [14] = test system: Lolium species (LOLSS), sensitive and resistant biotypes; assay: Greenhouse trial: resistant biotypes following PE application (test method 8); details: g of AS/ha: A 90, B 90, C 140, mixture 90 + 90 + 140, iodosulfuron 10
# Method: as §1
# as §2, with “group. […]” for “group.”
# [15] = Application 7 days prior to sowing
Compound,"activity HORVS (visual, scale 0-100%) [1] [%]","activity AVEFA pH 7.4 (visual, scale 0-100%) (Avena fatua (AVEFA) [2]) [%]","activity AVEFA pH 8.4 (visual, scale 0-100%) (Avena fatua (AVEFA) [2]) [%]","activity STEME (visual, scale 0-100%) (Stellaria media (STEME) [3]; PE application) [%]","activity POAAN (visual, scale 0-100%) (Poa annua (POAAN); Incorporation into the soil) [%]","activity POAAN (visual, scale 0-100%) (Poa annua (POAAN); PE application) [%]","activity STEME IU soil (visual, scale 0-100%) (Stellaria media (STEME) [4]) [%]","activity STEME IU/EC73 soil (visual, scale 0-100%) (Stellaria media (STEME) [4]) [%]","activity MATCH IU soil (visual, scale 0-100%) [5] [%]","activity HORVS IU soil (visual, scale 0-100%) [6] [%]","activity HORVS IU/EC73 soil (visual, scale 0-100%) [6] [%]","activity LOLPE (visual, scale 0-100%) (Lolium perenne (LOLPE); PE application) [%]","activity HORVS pH 7.4 (visual, scale 0-100%) [8] [%]","activity HORVS pH 8.4 (visual, scale 0-100%) [8] [%]","activity TRZAW (visual, scale 0-100%) ([9]; Incorporation into the soil) [%]","activity TRZAW (visual, scale 0-100%) ([9]; PE application) [%]","activity HORVS 5 mm (visual, scale 0-100%) [10] [%]","activity HORVS 20 mm (visual, scale 0-100%) [10] [%]","activity TRZAW (visual, scale 0-100%) [11, 15] [%]","activity TRZAW (visual, scale 0-100%) ([11]; PE application) [%]",further results
"CC(C)N(C(=O)COc1nnc(C(F)(F)F)s1)c1ccc(F)cc1 [(A) flufenacet, N-(4-fluorophenyl)-N-(1-methylethyl)-2-[[5-(trifluoromethyl)-1,3,4-thiadiazol-2-yl]oxy]acetamide]",60,80,55,0,90,65,0,0,28,10,0,90,10,10,60,20,30,20,60,30,"activity AVEFA (visual, scale 0-100%) (Avena fatua (AVEFA) [7]; PE application): 80%; activity APESV (visual, scale 0-100%) [12]: 65%"
"O=C(Nc1ccc(F)cc1F)c1cccnc1Oc1cccc(C(F)(F)F)c1 [(B) diflufenican, N-(2,4-difluorophenyl)-2-[3-(trifluoromethyl)phenoxy]-3-pyridinecarboxamide]",5,0,30,,75,,95,38,,0,0,60,0,0,20,10,30,5,10,10,"activity LOLPE (visual, scale 0-100%) (Lolium perenne (LOLPE); [15]): 0%"
"CSc1nnc(C(C)(C)C)c(=O)n1N [(C) metribuzin, 4-amino-6-(1,1-dimethylethyl)-3-(methylthio)-1,2,4-triazin-5(4H)-one]",70,90,90,75,15,0,75,5,0,0,0,50,40,50,55,30,70,30,0,55,"activity STEME (visual, scale 0-100%) (Stellaria media (STEME) [3]; Incorporation into the soil): 0%; activity MATCH IU/EC73 soil (visual, scale 0-100%) ([5]; IU/EC73 soil): 15%; activity MATCH 5 mm (visual, scale 0-100%) ([13]; Sowing depth 5 mm): 100%; activity MATCH 20 mm (visual, scale 0-100%) ([13]; Sowing depth 20 mm): 70%; activity LOLPE (visual, scale 0-100%) (Lolium perenne (LOLPE); [15]): 10%; activity AVEFA (visual, scale 0-100%) (Avena fatua (AVEFA) [7]; [15]): 0%; activity AVEFA (visual, scale 0-100%) (Avena fatua (AVEFA) [7]; PE application): 10%; activity LOLSS resistant (visual, scale 0-100%) ([14]; resistant biotype): 70%; activity LOLSS sensitive (visual, scale 0-100%) ([14]; sensitive biotype): 70%; activity APESV (visual, scale 0-100%) [12]: 79%"
